Consider six molecules from patent publication US20100221197A1, “ANTIMICROBIAL AGENT AND EXTERNAL PREPARATION FOR SKIN CONTAINING THE SAME” (TAIYO CORPORATION, priority 2007, published 2010).

One experiment relates to E. coli(JCM1649). The experiment in a line: Antimicrobial test, growth inhibition minimum concentration. Type of experiment: cell-based, Escherichia coli. As to the method:
(§1) 0.5 mL of a previously sterilized medium (brand name: Brain Heart Infusion Liquid Medium supplied by Nihon Pharmaceutical Co., Ltd.) was added into a 96-well deep type microplate, and 0.5 mL of ricinoleic acid monoglyceride or diglycerine ricinoleic acid monoester of the present invention (synthesized in “1. Synthesis Example of ricinoleic acid monoglyceride” and “2. Synthesis Example of diglycerine ricinoleic acid monoester,” respectively) was added thereto and serially prepared so that the final concentration in the medium was 3 ppm, 6 ppm, 12 ppm, 25 ppm, 50 ppm, 100 ppm, 200 ppm and 400 ppm. 0.1 mL of each cultured bacterial medium of Corynebacterium xerosis (JCM 1971) or Staphylococcus aureus (JCM 2151) at approximately 1×10^8CFU/mL was added to this sample solution, stirred, and then cultured at 37° C. under an aerobic condition for 24 hours. The antimicrobial effect was visually determined, and compared with test plots in which the microorganism had not been added. The test plot in which no turbidity due to growth of the microorganism was observed was determined as the test plot having the antimicrobial effect, and the lowest concentration required for inhibiting the growth of the microorganism (hereinafter referred to as a “growth inhibition minimum concentration”) was measured. As a Comparative Example, the growth inhibition minimum concentration of 4-isopropyl-3-methylphenol known as the antimicrobial agent having a broad antimicrobial spectrum was measured in the same way as in the above. The growth inhibition minimum concentrations of ricinoleic acid monoglyceride and diglycerine ricinoleic acid monoester of the present invention (synthesized in “1. Synthesis Example of ricinoleic acid monoglyceride” and “2. Synthesis Example of diglycerine ricinoleic acid monoester,” respectively) for the 9 indicator bacterial species shown in Table 2 were measured in the same way as in “3. Antimicrobial test” described above.

For experiment [1], the system named is Staphylococcus aureus (JCM 2151). The experiment in a line: Microbicidal test for Staphylococcus aureus. In kind it is cell-based. The conditions noted are these: FIG. 1. The protocol:
Ricinoleic acid monoglyceride synthesized in “1. Synthesis Example of ricinoleic acid monoglyceride” was added to a 0.2 M phosphate buffer (pH7.0) to prepare a 200 ppm sample. 0.1 mL of Staphylococcus aureus (JCM 2151) at approximately 1×10^8CFU/mL was added to 5 mL of the sample. While being kept under the aerobic condition, the bacterial sample was taken at 0, 5, 10, 30, 60 and 120 minutes after the addition, and the number of survival bacteria in the sample was counted at each retention time. Specifically, using a Brain Heart Infusion agar medium, the sample was serially diluted, cultured using a flat plate smear method at 37° C. for 48 hours, and then the number of bacteria was counted. As a comparative control, 4-isopropyl-3-methylphenol was simultaneously evaluated in the same way as in the above.

Experiment [2] deals with Propionibacterium acnes (JCM 6425). The experiment in a line: Antimicrobial test, growth inhibition minimum concentration (anaerobic). Type of experiment: cell-based. The conditions noted are these: Table 1, P. acnes(JCM6425), 37° C., 48 hours. As to the method: 0.5 mL of the previously sterilized medium (brand name: Brain Heart Infusion Liquid Medium supplied by Nihon Pharmaceutical Co., Ltd.) was added to a 96-well deep type microplate, and 0.5 mL of ricinoleic acid monoglyceride or diglycerine ricinoleic acid monoester of the present invention (synthesized in “1. Synthesis Example of ricinoleic acid monoglyceride” and “2. Synthesis Example of diglycerine ricinoleic acid monoester,” respectively) was added thereto and serially prepared so that the final concentration in the medium was 3 ppm, 6 ppm, 12 ppm, 25 ppm, 50 ppm, 100 ppm, 200 ppm and 400 ppm. 0.1 mL of a cultured bacterial medium of Propionibacterium acnes (JCM 6425) at approximately 1×10^8CFU/mL was added to this sample solution, and cultured at 37° C. under an anaerobic condition using a deoxidizer for 48 hours. The antimicrobial effect was visually determined, and the growth inhibition minimum concentration was measured. As a Comparative Example, the growth inhibition minimum concentration of 4-isopropyl-3-methylphenol known as the antimicrobial agent having a broad antimicrobial spectrum was measured in the same way as in the above.

The subject of the next experiment is S. epidermidis(JCM2414). As to the kind of experiment: Antimicrobial test, growth inhibition minimum concentration. The following applies: for minimum inhibitory concentration: Table 2. Type of experiment: cell-based, Staphylococcus epidemidis. The protocol:
as §1

In experiment [3] the test system is Staphylococcus aureus (JCM 2151). The experiment is described as above. The following applies: S. aureus(JCM2151); for MIC: Staphylococcus aureus, read-out: minimum inhibitory concentration. Type of experiment: cell-based. The protocol:
as §1

The test system of experiment [4] is Corynebacterium xerosis (JCM 1971). The description is as above. In kind it is cell-based. The following applies: C. xerosis(JCM1971). As to the method:
as §1

Experiment [5] relates to Propionibacterium acnes (JCM 6425). The experiment in a line: Microbicidal test for Propionibacterium acnes. The following applies: FIG. 2. Type of experiment: cell-based. As to the method:
Ricinoleic acid monoglyceride synthesized in “1. Synthesis Example of ricinoleic acid monoglyceride” was added to a 0.2 M phosphate buffer (pH7.0) to prepare a 200 ppm sample. 0.1 mL of Propionibacterium acnes (JCM 6425) at approximately 1×10^8CFU/mL was added to 5 mL of the sample. While being kept under the anaerobic condition, the bacterial sample was taken at 0, 5, 10, 30, 60 and 120 minutes after the addition, and the number of survival bacteria in the sample was counted at each retention time. Specifically, using a GAM agar medium, the sample was serially diluted, cultured using the flat plate smear method at 37° C. under the anaerobic condition for 4 days, and then the number of bacteria was counted. As the comparative control, 4-isopropyl-3-methylphenol was simultaneously evaluated in the same way as in the above.

The subject of a further experiment is S. mutans(JCM5175). As to the kind of experiment: Antimicrobial test, growth inhibition minimum concentration. In kind it is cell-based, Streptococcus mutans. The conditions noted are these: for minimum inhibitory concentration: Table 2. As to the method: as §1
The test system of experiment [6] is L. monocytogenes(JCM7671). The experiment is described as above. In kind it is cell-based, Listeria monocytogenes. The conditions noted are these: for minimum inhibitory concentration: Table 2. The protocol: as §1
A further experiment relates to B. cereus(JCM2152). The description is as above. Type of experiment: cell-based, Bacillus cereus. The following applies: for minimum inhibitory concentration: Table 2. The protocol:
as §1

Another experiment relates to B. subtile(JCM2151). The description is as above. Type of experiment: cell-based, Bacillus subtilis. The conditions noted are these: Table 2. The protocol: as §1
The next experiment relates to P. gingivalis(JCM8525). Described as above. In kind it is cell-based, Porphyromonas gingivalis. The conditions noted are these: Table 2. The protocol: as §1
[7] abbreviates: Table 1, 37° C., aerobic, 24 hours.

Structures are written as SMILES. In brackets after ≈: the same amount, converted by molar mass. Read-outs that look alike come from different tables or passages of the source.

As to `Cc1cc(O)ccc1C(C)C` [4-isopropyl-3-methyl phenol, 4-isopropyl-3-methylphenol], the MIC with E. coli(JCM1649) (Escherichia coli, Table 2, E. coli(JCM1649), read-out: minimum inhibitory concentration) was 400 µg/mL (≈ 2660 µM); in experiment [2] (Cutibacterium acnes, read-out: minimum inhibitory concentration), 200 µg/mL (≈ 1330 µM); with S. epidermidis(JCM2414) (Staphylococcus epidermidis, Table 2, read-out: minimum inhibitory concentration) it was 200 µg/mL (≈ 1330 µM); in experiment [3] (setting [7]) it was 200 µg/mL (≈ 1330 µM); in experiment [3] (Table 2) it was 200 µg/mL (≈ 1330 µM); in experiment [4] (Corynebacterium xerosis, Table 1, 37° C., aerobic, 24 hours, read-out: minimum inhibitory concentration), 200 µg/mL (≈ 1330 µM). Besides, the MIC with S. mutans(JCM5175) (Streptococcus mutans, Table 2, read-out: minimum inhibitory concentration) amounted to 200 µg/mL (≈ 1330 µM); in experiment [6] (Listeria monocytogenes, Table 2, read-out: minimum inhibitory concentration), 200 µg/mL (≈ 1330 µM); in the experiment on B. cereus(JCM2152) (Bacillus cereus, Table 2, read-out: minimum inhibitory concentration) it was 200 µg/mL (≈ 1330 µM). Besides, the “retention time for reducing the number of bacteria to 1/1000 or less” value in experiment [1] (200 ppm sample in 0.2 M phosphate buffer (pH7.0), aerobic) was 30 min. For the same molecule, the “microbicidal action for 10 minutes” value in experiment [1] (200 ppm, retention time 10 minutes) is reported as “weak”. In addition, in experiment [5] (200 ppm sample in 0.2 M phosphate buffer (pH7.0), anaerobic), the “retention time for reducing the number of bacteria to 1/100 or less” value was determined as 10 min. Moreover, the “microbicidal action for 5 minutes” value in experiment [5] (200 ppm, retention time 5 minutes) is on record as “weak”.
In the case of `CCCCCCCCCCCC(=O)OCC(O)COCC(O)CO` (stereo not drawn) [diglycerin lauric acid monoester], the minimum inhibitory concentration with E. coli(JCM1649) (Table 2, E. coli(JCM1649)) was greater than 400 ppm; with B. subtile(JCM2151), 100 ppm; in the experiment with S. epidermidis(JCM2414), 100 ppm; in [3] (Table 2) it was 50 ppm; in experiment [4] (Table 2), 200 ppm; in the experiment on S. mutans(JCM5175), 50 ppm. For the same molecule, the minimum inhibitory concentration is 200 ppm in experiment [6] and 100 ppm in the experiment with B. cereus(JCM2152).
For `CCCCCCCCCCCCCC(=O)OCC(O)COCC(O)CO` (stereo not drawn) [diglycerin myristic acid monoester], the minimum inhibitory concentration with E. coli(JCM1649) (Table 2, E. coli(JCM1649)) is greater than 400 ppm; with B. subtile(JCM2151), 25 ppm; with S. epidermidis(JCM2414) it was greater than 400 ppm; in experiment [3] (Table 2), 50 ppm; in experiment [4] (Table 2), 100 ppm; in the experiment on S. mutans(JCM5175) it was 50 ppm.
Turning to `CCCCCCC(O)CC=CCCCCCCCC(=O)OCC(O)COCC(O)CO` (stereo not drawn) [diglycerin ricinoleic acid monoester, diglycerine ricinoleic acid monoester], the minimum inhibitory concentration with E. coli(JCM1649) (Table 2, E. coli(JCM1649)) is greater than 400 ppm; in the experiment on B. subtile(JCM2151), 50 ppm; in [2], 100 ppm; in the experiment with S. epidermidis(JCM2414), 50 ppm; in [3] (setting [7]), 50 ppm; in [3] (Table 2) it was 50 ppm. Further, the minimum inhibitory concentration stood at 50 ppm in [4] (setting [7]); 25 ppm in [4] (Table 2); 50 ppm in the experiment on S. mutans(JCM5175); 50 ppm in [6]; 50 ppm with B. cereus(JCM2152). Moreover, the “antimicrobial activity against Escherichia coli” value in the experiment with E. coli(JCM1649) (statement in words from Table 2) is “did not exhibit antimicrobial activity”.
Turning to `CCCCCCCCCCCC(=O)OCC(O)CO` (stereo not drawn) [lauric acid monoglyceride], the minimum inhibitory concentration in the experiment with E. coli(JCM1649) (Table 2, E. coli(JCM1649)) is reported as greater than 400 ppm; in the experiment with B. subtile(JCM2151), 25 ppm; with S. epidermidis(JCM2414), 25 ppm; in experiment [3] (Table 2), 50 ppm; in [4] (Table 2) it was 100 ppm; in the experiment with S. mutans(JCM5175), 25 ppm. Further, the minimum inhibitory concentration in experiment [6] was found to be 25 ppm; in the experiment with B. cereus(JCM2152) it was 25 ppm; in the experiment on P. gingivalis(JCM8525), 13 ppm.
For the molecule `CCCCCCCCCCCCCC(=O)OCC(O)CO` (stereo not drawn) [myristic acid monoglyceride], the minimum inhibitory concentration with E. coli(JCM1649) (Table 2, E. coli(JCM1649)) was greater than 400 ppm; in the experiment on B. subtile(JCM2151) it was greater than 400 ppm; with S. epidermidis(JCM2414), greater than 400 ppm; in [3] (Table 2) it was 400 ppm; in [4] (Table 2), 400 ppm; in the experiment on S. mutans(JCM5175), 100 ppm. The values for the minimum inhibitory concentration (in experiment [6]; in the experiment on B. cereus(JCM2152); in the experiment on P. gingivalis(JCM8525)) were 200 ppm, 400 ppm and 50 ppm, respectively.
